From patent publication US12529692B2, “Live cell imaging dynamic BH3 profiling” (Dana-Farber Cancer Institute, Inc., priority 2019, dated 2026)

Assays:
Type in all cases: cell-based
cells of a sample = experiment: LCI-DBP example workflow (FIG. 1A), delta priming compared across treatments; details: bar graph of FIG. 1A comparing different treatments; cells not specified
Description: An example workflow of live cell imaging dynamic BH3 profiling (LCI-DBP) is depicted in FIG. 1A. As shown, in some embodiments, cells are plated in a well (e.g., a well of a multi-well plate). In some embodiments, the plated cells are contacted with a test agent or a control solution (e.g., a vehicle solution used with the test agent, such as water, buffer, or a solvent), and the test agent is incubated with the cells for a treatment period. In some embodiments, the treated cells are stained with desired markers for imaging (e.g., nuclear and/or mitochondrial markers). In some embodiments, the cells are then treated with a reagent for measuring MOMP, such as a potentiometric dye. In some embodiments, the stained and treated cells are then contacted with a BH3 peptide. Cells treated with BH3 peptide are imaged by live cell imaging to detect the reagent for measuring MOMP. […] In some embodiments, the loss in emission from the potentiometric dye is evaluated for cells treated with the test agent as compared with cells that were not treated with the test agent. In some embodiments, the difference in emission between treated and untreated cells is determined to obtain a parameter referred to herein as delta priming. Image analysis software, or any suitable algorithm known to one skilled in the art, may be used to determine the difference in emission, or it may be determined manually. […]

[1] = system: Pancreatic 8902 (Panc8902) cell line; experiment: Live cell imaging dynamic BH3 profiling (LCI-DBP) on Pancreatic 8902 cell line
Description: Cells were imaged by live single-cell imaging at 18 minutes, 40 minutes, 48 minutes, 58 minutes, and 120 minutes following BH3 peptide addition (FIG. 2A). Nuclear staining was detected as a blue emission from Hoechst 33342, and mitochondrial transmembrane potential staining was detected as a green emission from TMRE. […]

MMTV-PyMT-T1 cells = experiment: LCI-DBP on MMTV breast cancer PDX model; details: MMTV-PyMT-T1 cells treated overnight, then BIM BH3 peptide 10 μM final; imaged 0-120 minutes; compared to undrugged (DMSO) cells; FIG. 3A
Description: The plates with cells were stained with 10 μL per well of LCI-Staining Solution for 20 minutes at 37° C. in a 3307 Steri-Cult Incubator, Class 100 HEP. An EL406™ Combination Microplate Washer Dispenser was then used to aspirate the volume in the wells to 10 μL. The plates with cells were washed three times with LCI-Wash buffer to a final residual volume of 10 μL per well using the EL406™ Combination Microplate Washer Dispenser. The plate was then placed on an ImageXpress® Micro 4 High Content Screening System with the required settings, taking an image every two minutes. After two images, 10 μL of the selected LCI-DBP BIM peptide buffer(s) were added to the wells. The plate was then imaged for at most 2 hours.
As depicted, cells are plated on collagen-coated plates and allowed to incubate for 16-24 hours in the presence of a test agent. […] After all images are acquired, image analysis software is used to quantify differences in TMRE release between drug-treated cells and vehicle-treated cells. […]
Cells were imaged by live single-cell imaging at 0 minutes, 42 minutes, 50 minutes, 66 minutes, and 120 minutes following BH3 peptide addition (FIG. 3A). Nuclear staining was detected as a blue emission from Hoechst 33342, and mitochondrial transmembrane potential staining was detected as a […] emission from TMRE.

## CC1(C)CCC(c2ccc(Cl)cc2)=C(CN2CCN(c3ccc(C(=O)NS(=O)(=O)c4ccc(N[C@H](CCN5CCOCC5)CSc5ccccc5)c(S(=O)(=O)C(F)(F)F)c4)cc3)CC2)C1 [Navitoclax]
Cells of a sample
  delta priming: highest value for delta priming
[1]; Panc8902 cells, drug 1 μM overnight, BIM BH3 peptide 1 μM final, monitored over 120 minutes, versus DMSO, FIG. 5C
  half-time of TMRE loss in single cells (measurement of apoptotic priming): decrease in the half-time of TMRE loss

## CO[C@H]1/C=C\C=C(/C)C(=O)NC2=CC(=O)C(NCCN(C)C)=C(C[C@@H](C)C[C@H](OC)[C@H](O)[C@@H](C)/C=C(\C)[C@@H]1OC(N)=O)C2=O [17-DMAG]
MMTV-PyMT-T1 cells
  loss in mitochondrial potential, detected as loss in TMRE emission over time: observable accelerated loss in mitochondrial potential

## Cc1c(-c2ccc(N3CCc4cccc(C(=O)Nc5nc6ccccc6s5)c4C3)nc2C(=O)O)cnn1CC12CC3CC(CC(C3)C1)C2 [A1331852]
[1]; Panc8902 cells treated overnight, then BIM BH3 peptide 10 μM final, imaged 18-120 minutes, compared to undrugged (DMSO) cells, FIG. 2A
  loss in mitochondrial potential, detected as loss in TMRE emission over time: observable accelerated loss in mitochondrial potential
